Measured values as given in the supplement of paper PMC10331698.
± gives the standard deviation of the averaged measurements.

Tests used:
Test in all cases: level (log10 ratio to DMSO vehicle control); higher = higher biomarker level / cell amount than vehicle control
Conditions in all cases: in DMSO
[1] = compound: O=C(O)C(F)(F)C(F)(F)OC(F)(F)F [Perfluoro-3-methoxypropanoic acid]
Method: (§1)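 BioMAP Diversity Plus panel of 12 human primary cell co-culture systems (3C, 4H, LPS, SAg, BT, BF4T, BE3C, CASM3C, HDF3CGF, KF3CT, MyoF, Mphg). Compounds were added 1 h before stimulation and left for 24 h (MyoF 48 h; BT 72 h for soluble read-outs or 6 d for IgG). Biomarkers were read by ELISA, cytotoxicity by SRB, PBMC viability and proliferation by Alamar Blue. Each well value was divided by the mean of 8 DMSO control wells on the same plate and log10 transformed; duplicate blinded samples were tested at 4 concentrations.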

[2] = compound: O=C(O)C(F)(F)C(F)(F)C(F)(F)OC(F)(C(F)(F)F)C(F)(F)F [Perfluoro-4-isopropoxybutanoic acid]
Method: as §1

[3] = compound: O=S(=O)(O)C(F)(F)C(F)(F)C(F)(F)C(F)(F)C(F)(F)C(F)(F)F [Perfluorohexanesulfonic acid]
Method: as §1

[4] = compound: FC(F)(F)C(F)(C(F)(F)F)C(F)(F)C(F)(F)CC1CO1 [3-(Perfluoro-3-methylbutyl)-1,2-propenoxide]
Method: as §1

[5] = compound: O=C(O)C(F)(F)C(F)(F)C(F)F [4H-Perfluorobutanoic acid]
Method: as §1

Pentafluoropropionamide = compound: NC(=O)C(F)(F)C(F)(F)F [Pentafluoropropionamide]
Method: as §1

Perfluoropentanoic acid = compound: O=C(O)C(F)(F)C(F)(F)C(F)(F)C(F)(F)F [Perfluoropentanoic acid]
Method: as §1

Test System	level (log10) ([1]; 6700 nM)	level (log10) ([1]; 20000 nM)	level (log10) ([1]; 60000 nM)	level (log10) ([2]; 6700 nM)	level (log10) ([2]; 20000 nM)	level (log10) ([2]; 60000 nM)	level (log10) ([3]; 6700 nM)	level (log10) ([3]; 20000 nM)	level (log10) ([3]; 60000 nM)	level (log10) ([4]; 6700 nM)	level (log10) ([4]; 20000 nM)	level (log10) ([5]; 6700 nM)	level (log10) ([5]; 20000 nM)	level (log10) ([5]; 60000 nM)	level (log10) (Pentafluoropropionamide; 6700 nM)	level (log10) (Pentafluoropropionamide; 20000 nM)	level (log10) (Pentafluoropropionamide; 60000 nM)	level (log10) (Perfluoropentanoic acid; 6700 nM)	level (log10) (Perfluoropentanoic acid; 20000 nM)	level (log10) (Perfluoropentanoic acid; 60000 nM)
LPS:CD106/VCAM-1	0.0065 ± 0.013	-0.0065 ± 0.00071	-0.01 ± 0.0028	-0.0015 ± 0.016	-0.0075 ± 0.0078	-0.0095 ± 0.028	-0.016 ± 0.017	-0.0155 ± 0.015	0.005 ± 0.016	-0.0085 ± 0.019	0.015 ± 0.013	-0.018 ± 0.0071	-0.0245 ± 0.011	-0.002 ± 0.025	-0.041 ± 0.0014	-0.021 ± 0.0099	-0.0135 ± 0.018	0.005 ± 0.013	0.004 ± 0.0057	0.0035 ± 0.023
BF4T:Keratin 8/18	-0.002 ± 0.031	-0.003 ± 0.0085	0.016 ± 0.011	-0.002 ± 0.0014	-0.0115 ± 0.0021	0.0025 ± 0.011	0.007 ± 0.011	0.0075 ± 0.0064	0.026 ± 0.02	0.01 ± 0.023	-0.002 ± 0.035	-0.027 ± 0.027	-0.0025 ± 0.013	0.0035 ± 0.021	0.0075 ± 0.043	0.0395 ± 0.05	0.0075 ± 0.032	0.0055 ± 0.0064	-0.002 ± 0.0085	0.0055 ± 0.03
LPS:CD62E/E-Selectin	-0.0015 ± 0.011	-0.0075 ± 0.005	0.0105 ± 0.0035	-0.004 ± 0.013	-0.013 ± 0.048	0.001 ± 0.021	-0.0035 ± 0.023	0.0025 ± 0.0064	0.008 ± 0.035	0.0165 ± 0.0035	0.0245 ± 0.025	-0.006 ± 0.013	0.002 ± 0.0028	0.0075 ± 0.011	-0.0265 ± 0.025	-0.0185 ± 0.028	-0.004 ± 0.0071	0.01 ± 0.0057	-0.004 ± 0.0071	0.015 ± 0.018
SAg:Proliferation	-0.0075 ± 0.035	-0.015 ± 0.033	0.0005 ± 0.026	-0.018 ± 0.0042	-0.007 ± 0.0028	0.0175 ± 0.04	-0.0215 ± 0.016	0.0015 ± 0.0064	0.021 ± 0.024	0.028 ± 0.017	0.007 ± 0.12	-0.0545 ± 0.026	-0.0325 ± 0.025	-0.0145 ± 0.03	0.0045 ± 0.016	0.0135 ± 0.022	0.045 ± 0.0028	-0.0195 ± 0.04	0.0205 ± 0.046	0.0175 ± 0.08
